In patent US8431596B2 (Cancer Research Technology Limited, priority 2007, dated 2013):

Target: T1, AXL (human catalytic domain) (Homo sapiens, UniProt P30530)
T1 construct: purchased Upstate Ltd. 14-512
T1 sequence (P30530 473-894): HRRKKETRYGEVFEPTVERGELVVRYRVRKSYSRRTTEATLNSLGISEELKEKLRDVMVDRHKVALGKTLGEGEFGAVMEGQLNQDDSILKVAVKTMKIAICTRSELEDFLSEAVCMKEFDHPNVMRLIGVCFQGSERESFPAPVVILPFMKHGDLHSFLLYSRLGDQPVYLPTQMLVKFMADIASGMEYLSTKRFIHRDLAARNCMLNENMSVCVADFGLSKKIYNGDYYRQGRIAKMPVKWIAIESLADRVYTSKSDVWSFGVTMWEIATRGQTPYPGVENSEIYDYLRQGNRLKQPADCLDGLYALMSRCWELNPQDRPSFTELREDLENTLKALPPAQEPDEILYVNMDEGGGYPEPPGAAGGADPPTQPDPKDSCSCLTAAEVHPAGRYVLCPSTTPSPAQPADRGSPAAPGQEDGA
Experiment: AXL (human catalytic domain) Enzyme Activity Assay (IMAP fluorescence polarisation)
Type: biochemical
In short: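 Recombinant human AXL isoform 1 (aa473-894; final 15 nM) phosphorylated 100 nM fluorescein-CSK-tide with 150 μM ATP (KM) in HEPES pH 7.0/MgCl2/DTT buffer for 60 min at room temperature. IMAP fluorescence polarisation read after overnight binding; IC50 from 10-point 4-parameter logistic fits.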

[1] = first data set, recombinant AXL isoform 1 aa473-894, 150 μM ATP
[2] = further data set (WW-001 through WW-169, XX-001 through XX-469, YY-001 through YY-016, ZZ-001 through ZZ-003), 150 μM ATP

Structure (SMILES) | IC50 [1] [µM] | IC50 [2] [µM]
CC(Oc1ccc(Nc2nc3cccc(-c4ccc5c(c4)OCCO5)n3n2)cc1)C(N)=O (stereo not drawn) [XX-072] | < 1 | 0.1 to 1
NC(=O)COc1ccc(Nc2nc3cccc(-c4ccc5c(c4)OCCO5)n3n2)cc1 [XX-073] | < 1 | 0.1 to 1
CN(C)CCOc1cccc(Nc2nc3cccc(-c4ccc5c(c4)OCCO5)n3n2)c1 [XX-074] | < 1 | ≤ 0.1
CCN(CC)CCOc1ccc(Nc2nc3cccc(-c4ccc5c(c4)OCCO5)n3n2)cc1 [XX-075] | < 1 | ≤ 0.1
CCN(CC)CCOc1cccc(Nc2nc3cccc(-c4ccc5c(c4)OCCO5)n3n2)c1 [XX-076] | < 1 | ≤ 0.1
CN1CCN(CCOc2ccc(Nc3nc4cccc(-c5ccc6c(c5)OCCO6)n4n3)cc2)CC1 [XX-077] | < 1 | ≤ 0.1
CN(C)CCOc1ncc(Nc2nc3cccc(-c4ccc5c(c4)OCCO5)n3n2)cn1 [XX-078] | < 1 | 0.1 to 1
CN(C)CCOc1cc(Nc2nc3cccc(-c4ccc5c(c4)OCCO5)n3n2)ccn1 [XX-079] | < 1 | ≤ 0.1
CN(C)CCNC(=O)c1cccc(Nc2nc3cccc(-c4ccc5c(c4)OCCO5)n3n2)c1 [XX-080] | < 1 | ≤ 0.1
CNCCOc1cccc(Nc2nc3cccc(-c4ccc5c(c4)OCCO5)n3n2)c1 [XX-081] | < 1 | ≤ 0.1
CN(C)C/C=C/c1ccc(Nc2nc3cccc(-c4ccc5c(c4)OCCO5)n3n2)cc1 [XX-082] | < 1 | ≤ 0.1
CN(C)C/C=C/c1cccc(Nc2nc3cccc(-c4ccc5c(c4)OCCO5)n3n2)c1 [XX-083] | < 1 | ≤ 0.1
CN(C)CCNC(=O)c1ccc(Nc2nc3cccc(-c4ccc5occc5c4)n3n2)cc1 [XX-084] | < 1 | ≤ 0.1
CN(C)CCNC(=O)c1cccc(Nc2nc3cccc(-c4ccc5occc5c4)n3n2)c1 [XX-085] | < 1 | ≤ 0.1
CNCCOc1cccc(Nc2nc3cccc(-c4ccc5occc5c4)n3n2)c1 [XX-086] | < 1 | ≤ 0.1
CN(C)CCNC(=O)c1ccc(Nc2nc3cccc(-c4ccc5c(c4)OCO5)n3n2)cc1 [XX-087] | < 1 | 0.1 to 1
CNCCOc1cccc(Nc2nc3cccc(-c4ccc5c(c4)OCO5)n3n2)c1 [XX-088] | < 1 | 0.1 to 1
CCOC(=O)c1cccc(-c2cccc3nc(Nc4ccc(OCCN5CCCC5)cc4)nn23)c1 [XX-089] | – | 1 to 10
OCc1cccc(-c2cccc3nc(Nc4ccc(OCCN5CCCC5)cc4)nn23)c1 [XX-090, (3-{2-[4-(2-Pyrrolidin-1-yl-ethoxy)-phenylamino]-[1,2,4]triazolo[1,5-a]pyridin-5-yl}-phenyl)-methanol] | – | ≤ 0.1
CS(=O)(=O)OCCn1cc(-c2cccc3nc(Nc4ccc(OCCN5CCCC5)cc4)nn23)cn1 [XX-091, Methanesulfonic acid 2-(4-{2-[4-(2-pyrrolidin-1-yl-ethoxy)-phenylamino]-[1,2,4]triazolo[1,5-a]pyridin-5-yl}-pyrazol-1-yl)-ethyl ester] | – | 0.1 to 1
CC(C)(C)CNC(=O)Cn1cc(-c2cccc3nc(Nc4ccc(OCCN5CCCC5)cc4)nn23)cn1 [XX-092, N-(2,2-Dimethyl-propyl)-2-(4-{2-[4-(2-pyrrolidin-1-yl-ethoxy)-phenylamino]-[1,2,4]triazolo[1,5-a]pyridin-5-yl}-pyrazol-1-yl)-acetamide] | – | 1 to 10
CN1CCOc2cc(-c3cccc4nc(Nc5ccc(OCCN6CCCC6)cc5)nn34)ccc21 [XX-093] | – | 0.1 to 1
Cc1cc(-c2cccc3nc(Nc4ccc(OCCN5CCCC5)cc4)nn23)ccc1N(C)C [XX-094] | – | 0.1 to 1

Structure (SMILES) | IC50 [1] [µM] | IC50 [2] [µM]
COc1cc(Nc2nc3cccc(-c4ccc5c(c4)OCCN5C)n3n2)ccc1OCCN1CCCC1 [XX-095] | – | 0.1 to 1
CCN(CC)CCOc1cccc(Nc2nc3cccc(-c4ccc5c(c4)OCCN5C)n3n2)c1 [XX-096] | – | 0.1 to 1
c1cc(-c2ccc3c(c2)OCCO3)n2nc(Nc3cnc(OCCN4CCCC4)nc3)nc2c1 [XX-097] | – | 0.1 to 1
c1cc(-c2ccc3c(c2)OCCO3)n2nc(Nc3cnc(OCCN4CCCCC4)nc3)nc2c1 [XX-098] | – | 1 to 10
c1cc(-c2ccc3c(c2)OCCO3)n2nc(Nc3ccnc(OCCN4CCCC4)c3)nc2c1 [XX-099] | – | 0.1 to 1
c1cc(Nc2nc3cccc(-c4ccc5c(c4)OCCO5)n3n2)cc(OCCN2CCCC2)c1 [XX-100] | – | 0.1 to 1
c1cc(-c2ccc3c(c2)OCCO3)n2nc(Nc3ccnc(OCCN4CCCCC4)c3)nc2c1 [XX-101] | – | ≤ 0.1
c1cc(-c2ccc3c(c2)OCCO3)n2nc(Nc3ccc(OCCN4CCCC4)nc3)nc2c1 [XX-102] | – | 0.1 to 1
CNCCOc1ccc(Nc2nc3cccc(-c4ccc5c(c4)OCCO5)n3n2)cc1C [XX-103] | – | 0.1 to 1
O=C(CCN1CCCC1)Nc1ccc(Nc2nc3cccc(-c4ccc5c(c4)OCCO5)n3n2)cc1 [XX-104] | – | 0.1 to 1
c1cc(-c2ccc3c(c2)OCCO3)n2nc(Nc3ccc(NCCN4CCCC4)cc3)nc2c1 [XX-105] | – | 0.1 to 1
c1cc(-c2ccc3c(c2)OCCO3)n2nc(Nc3ccc(OCCN4CCCCC4)nc3)nc2c1 [XX-106] | – | 0.1 to 1
O=C(CN1CCCC1)Nc1cccc(Nc2nc3cccc(-c4ccc5c(c4)OCCO5)n3n2)c1 [XX-107] | – | 0.1 to 1
NCCSc1ccc(Nc2nc3cccc(-c4ccc5c(c4)OCCO5)n3n2)cc1 [XX-108] | – | ≤ 0.1
O=C(CCN1CCCC1)Nc1cccc(Nc2nc3cccc(-c4ccc5c(c4)OCCO5)n3n2)c1 [XX-109] | – | 0.1 to 1
O=C(NCCN1CCCC1)c1ccc(Nc2nc3cccc(-c4ccc5c(c4)OCCO5)n3n2)cc1 [XX-110] | – | ≤ 0.1
CN1CCN(C(=O)c2ccc(Nc3nc4cccc(-c5ccc6c(c5)OCCO6)n4n3)cc2)CC1 [XX-111] | – | 0.1 to 1
COc1cc(Nc2nc3cccc(-c4ccc5c(c4)OCCO5)n3n2)ccc1OCCN(C)C [XX-112] | – | 0.1 to 1
O=C(NCCN1CCCC1)c1cccc(Nc2nc3cccc(-c4ccc5c(c4)OCCO5)n3n2)c1 [XX-113] | – | ≤ 0.1
CN1CCN(C(=O)c2cccc(Nc3nc4cccc(-c5ccc6c(c5)OCCO6)n4n3)c2)CC1 [XX-114] | – | 0.1 to 1
CN(C)CCCc1cccc(Nc2nc3cccc(-c4ccc5c(c4)OCCO5)n3n2)c1 [XX-115, [5-(2,3-Dihydro-benzo[1,4]dioxin-6-yl)-[1,2,4]triazolo[1,5-a]pyridin-2-yl]-[3-(3-dimethylamino-propyl)-phenyl]-amine] | – | 0.1 to 1
c1cc(NCCN2CCCC2)cc(Nc2nc3cccc(-c4ccc5c(c4)OCCO5)n3n2)c1 [XX-116] | – | 0.1 to 1
c1cc(NCCCN2CCCC2)cc(Nc2nc3cccc(-c4ccc5c(c4)OCCO5)n3n2)c1 [XX-117] | – | 0.1 to 1

Structure (SMILES) | IC50 [1] [µM] | IC50 [2] [µM]
CC(CN)Oc1ccc(Nc2nc3cccc(-c4ccc5c(c4)OCCO5)n3n2)cc1 (stereo not drawn) [XX-118] | – | ≤ 0.1
CCN(CC)CC(=O)Nc1ccc(Nc2nc3cccc(-c4ccc5c(c4)OCCO5)n3n2)cc1 [XX-119] | – | 0.1 to 1
CCN(CC)CC(=O)Nc1cccc(Nc2nc3cccc(-c4ccc5c(c4)OCCO5)n3n2)c1 [XX-120] | – | 0.1 to 1
O=C(CN1CCCCC1)Nc1cccc(Nc2nc3cccc(-c4ccc5c(c4)OCCO5)n3n2)c1 [XX-121] | – | 0.1 to 1
CCN(CC)CCC(=O)Nc1ccc(Nc2nc3cccc(-c4ccc5c(c4)OCCO5)n3n2)cc1 [XX-122] | – | 0.1 to 1
O=C(CCN1CCCCC1)Nc1ccc(Nc2nc3cccc(-c4ccc5c(c4)OCCO5)n3n2)cc1 [XX-123] | – | 0.1 to 1
CCN(CC)CCC(=O)Nc1cccc(Nc2nc3cccc(-c4ccc5c(c4)OCCO5)n3n2)c1 [XX-124] | – | 0.1 to 1
O=C(CCN1CCCCC1)Nc1cccc(Nc2nc3cccc(-c4ccc5c(c4)OCCO5)n3n2)c1 [XX-125] | – | 0.1 to 1
CN(C)CC(C)(C)Oc1ccc(Nc2nc3cccc(-c4ccc5c(c4)OCCO5)n3n2)cc1 [XX-126] | – | 0.1 to 1
CCN(CC)CCNc1ccc(Nc2nc3cccc(-c4ccc5c(c4)OCCO5)n3n2)cc1 [XX-127] | – | ≤ 0.1
CCN(CC)CCNc1cccc(Nc2nc3cccc(-c4ccc5c(c4)OCCO5)n3n2)c1 [XX-128] | – | 0.1 to 1
c1cc(-c2ccc3c(c2)OCCO3)n2nc(Nc3ccc(NCCCN4CCCCC4)cc3)nc2c1 [XX-129] | – | 0.1 to 1
CCN(CC)CCCNc1cccc(Nc2nc3cccc(-c4ccc5c(c4)OCCO5)n3n2)c1 [XX-130] | – | ≤ 0.1
c1cc(NCCCN2CCCCC2)cc(Nc2nc3cccc(-c4ccc5c(c4)OCCO5)n3n2)c1 [XX-131] | – | ≤ 0.1
COc1ccc(Nc2nc3cccc(-c4ccc5c(c4)OCCO5)n3n2)cc1OCCN1CCCC1 [XX-132] | – | ≤ 0.1
Fc1cc(Nc2nc3cccc(-c4ccc5c(c4)OCCO5)n3n2)ccc1OCCN1CCCC1 [XX-133] | – | ≤ 0.1
Fc1ccc(Nc2nc3cccc(-c4ccc5c(c4)OCCO5)n3n2)cc1OCCN1CCCC1 [XX-134] | – | 0.1 to 1
CC(C(=O)Nc1ccc(Nc2nc3cccc(-c4ccc5c(c4)OCCO5)n3n2)cc1)N1CCCC1 (stereo not drawn) [XX-135] | – | 0.1 to 1
CC(C(=O)Nc1cccc(Nc2nc3cccc(-c4ccc5c(c4)OCCO5)n3n2)c1)N1CCCC1 (stereo not drawn) [XX-136] | – | ≤ 0.1
CN(C)CCCc1ccc(Nc2nc3cccc(-c4ccc5c(c4)OCCO5)n3n2)cc1 [XX-137] | – | 0.1 to 1
C[C@@H](N)COc1ccc(Nc2nc3cccc(-c4ccc5c(c4)OCCO5)n3n2)cc1 [XX-138] | – | 0.1 to 1
